Data on three compounds can be found in US10407431B2, “Compounds and compositions as toll-like receptor 7 agonists” (NOVARTIS AG, priority 2014, dated 2019).

For this experiment, the target named is human TLR7 (Homo sapiens (Human), UniProt Q9NYK1). As to the kind of experiment: Reporter Gene Assay (HEK293 stably transfected with human TLR7 and NF-kB-driven luciferase reporter). The experiment is classed as cell-based. Conditions: HEK293 cells stably transfected with human TLR7 and pNifty-Luciferase; 7 hours incubation; EC50 relative to the activity of resiquimod set to 100%. As to the method:
As a control assay, normal Hek293 transfected with pNifty-Luc were used. […] Bright-Glo™ Luciferase assay buffer and substrate were supplied by Promega #E263B and #E264B (assay substrate and buffer respectively). 384 well clear-bottom plates were supplied by Greiner bio-one (#789163-G) and were custom bar-coded plates.
Cells were plated at 25,000 cells/well in 384-well plates in a final volume of 50 μl of media. Cells were allowed to adhere to the plates after overnight (18 hours) culture at 37° C. and 5% CO2. Serially diluted experimental and positive control compounds were then dispensed to each well and incubated for 7 hours at 37° C. and 5% CO2. Cells stimulated with DMSO alone also serve as negative controls. After the incubation, 30 μl of the pre-mix assay buffer and substrate buffer were added to each well according to manufacturer's instructions. The luminescence signal was read on a CLIPR machine with an integration time of 20 seconds per plate.
In general terms: A reporter such as luciferase makes a cellular process visible.

SMILES strings stand for the structures. Where only a bound is given, the exact number is not on record here.

Chain of human TLR7 (Q9NYK1 27-1049): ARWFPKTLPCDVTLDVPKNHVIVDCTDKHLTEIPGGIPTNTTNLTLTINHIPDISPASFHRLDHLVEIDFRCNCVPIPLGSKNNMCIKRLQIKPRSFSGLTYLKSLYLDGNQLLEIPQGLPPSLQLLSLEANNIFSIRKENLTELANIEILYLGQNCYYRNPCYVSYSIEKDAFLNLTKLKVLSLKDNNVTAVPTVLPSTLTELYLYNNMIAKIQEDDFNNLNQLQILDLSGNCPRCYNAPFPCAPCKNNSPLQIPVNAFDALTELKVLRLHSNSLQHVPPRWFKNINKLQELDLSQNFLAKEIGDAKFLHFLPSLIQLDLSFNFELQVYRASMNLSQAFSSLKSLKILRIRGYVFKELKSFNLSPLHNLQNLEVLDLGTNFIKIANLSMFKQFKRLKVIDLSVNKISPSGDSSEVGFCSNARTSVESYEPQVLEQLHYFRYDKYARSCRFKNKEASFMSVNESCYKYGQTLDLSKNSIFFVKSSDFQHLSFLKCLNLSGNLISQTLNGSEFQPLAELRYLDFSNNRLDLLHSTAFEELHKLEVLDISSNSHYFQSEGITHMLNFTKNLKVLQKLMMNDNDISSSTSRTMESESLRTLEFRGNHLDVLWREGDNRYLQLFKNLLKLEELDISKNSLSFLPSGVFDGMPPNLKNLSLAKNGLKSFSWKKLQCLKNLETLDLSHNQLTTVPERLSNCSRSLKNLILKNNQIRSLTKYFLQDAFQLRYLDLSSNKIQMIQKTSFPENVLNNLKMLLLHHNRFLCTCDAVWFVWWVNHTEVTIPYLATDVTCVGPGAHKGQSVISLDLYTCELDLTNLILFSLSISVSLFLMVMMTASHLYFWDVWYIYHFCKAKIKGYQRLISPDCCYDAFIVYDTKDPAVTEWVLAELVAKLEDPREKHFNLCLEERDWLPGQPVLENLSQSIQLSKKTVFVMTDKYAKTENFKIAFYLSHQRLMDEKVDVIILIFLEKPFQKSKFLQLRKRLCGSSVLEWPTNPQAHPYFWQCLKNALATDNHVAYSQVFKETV

`CCCCCNc1nc(N)nc2ccn(Cc3ccc(CC(=O)OCCO)cc3OC)c12` [Example 22, 2-hydroxyethyl 2-(4-{[2-amino-4-(pentylamino)-5H-pyrrolo[3,2-d]pyrimidin-5-yl]methyl}-3-methoxyphenyl)acetate] showed an EC50 of less than 0.006 µM.

`CCCCCNc1nc(N)nc2ccn(Cc3cc(OCC(=O)OCCN4CCOCC4)ccc3OC)c12` [Example 28, 2-(morpholin-4-yl)ethyl 2-(3-{[2-amino-4-(pentylamino)-5H-pyrrolo[3,2-d]pyrimidin-5-yl]methyl}-4-methoxyphenoxy)acetate] yielded an EC50 of 0.4 µM.

`CCCCCNc1nc(N)nc2ccn(Cc3cc(OCC(=O)OCC(=O)N4CCOCC4)ccc3OC)c12` [Example 8, 2-morpholino-2-oxoethyl 2-(3-((2-amino-4-(pentylamino)-5H-pyrrolo[3,2-d]pyrimidin-5-yl)methyl)-4-methoxyphenoxy)acetate] had an EC50 of 0.04 µM.

The term EC50 denotes the midpoint of the concentration-response curve. A higher EC50 goes with a less potent agent.
